In data set [1] the test system is FXa (Bovine Factor Xa). The data set can be described thus: Measurement of FXa: heparin activity with COATEST HEPARIN FXa assay kit. It counts as biochemical. The settings on record: chromogenic substrate S-2222, absorbance at 405 nm. On the procedure:
The term “heparin activity” refers to the anticoagulant ability of heparin.
Stock solutions were prepared from 10 IU/ml of standard solution by accurately preparing test substances and then diluted to 0.1 IU/ml with buffer working solution (Tris 0.5 mol/L, pH=8.4, 10 ml, Chromogenix) to prepare standard solutions for each dose as shown in the following table 2 and used for the analysis.
Each 200 μL of pretreated samples was placed in a cuvette and preheated at 37° C. for 3 to 4 minutes. Each 100 μl of FXa (Bovine Factor Xa 71 nkat., Chromogenix) was added thereto and left at 37° C. for about 30 seconds. Then, each 200 μl of S-2222 (Chromogenic substrate (Bz-Ile-Glu-(g-OR)-Gly-Arg-pNA.HCl), Chromogenix) was added thereto and left at 37° C. for 3 minutes. Subsequently, each 300 μl of 20% acetic acid was added thereto, and then the absorbance was measured at 405 nm. At this time, the measurement should be performed within 4 hours.
A linear regression equation was obtained using calibration curve of the standard solutions and converted to obtain the titers of the samples.

In data set [2] the test system is deep vein thrombosis (DVT) disease models. Kind of data set: Measurement of DVT activities (rat deep vein thrombosis model). Format: in vivo. The settings on record: rats, LMWH (enoxaparin) injected subcutaneously. On the procedure:
Low molecular weight heparin (enoxaparin) was administered to one group by subcutaneous injection, and the formulated complex of Example 2 was administered orally to other groups. […] The distal end of the vein along about 3 cm was weakly tied off, and the remaining veins were strongly tied off. 60 minutes after the drug treatment, 1 mL/kg of human pooled plasma was administered intravenously to the ends of the tails at 37° C., and the veins were tied off after 15 seconds to prevent blood flow. The veins were isolated 120 minutes after the drug treatment and stored in a Petri dish with 3.8% sodium citrate. Then, thrombus was isolated, and the amount of […] generated was measured.

For data set [3] the following is noted: rat, in vivo, iv, 2 mg/kg.
Procedure: The following experiment was performed to determine the pharmacokinetic (PK) behavior of heparin administered orally using the drug delivery conjugated moiety of the present invention.
Prior to drug administration, experimental animals (rats) were fasted for more than 4 hours to empty the stomach. Then, after the dorsal skin was fixed, forced oral administration was performed using a sonde and a syringe for oral administration, and the animals were fed again about 4 hours after the administration. […] Blood samples (450 μL) were collected in a tube containing sodium citrate (50 μL) and centrifuged at 4500×g for 20 minutes to isolate plasma, which was then stored in a deep freezer at −70° C. The concentration of the drug delivery conjugated moiety-heparin complex in the plasma was analyzed using the COATEST HEPARIN FXa assay (Chromogenix).

For the substance enoxaparin [LMWH], the “Anti-factor Xa activity” value in data set [1] amounted to 101 IU/mg. The “thrombus generated, compared with complex of Example 2” value in data set [2] is “almost the same results”. In addition, in data set [3], the “AUC (Area under the concentration-time curve from 0 to 8 h)” value is reported as 1.8 ± 0.1 IU · h/ml, the “CL (Clearance)” value was determined as 17 ± 0 mL/day/kg, the “Emax (Maximum effective concentration)” value is given as 1.61 ± 0.02 IU/ml and the “Tmax (Time to reach maximum effective concentration)” value was 12 ± 0 min. The “t1/2 (Half-life of drug)” value in data set [3] was found to be 72 ± 6 min.

(Values after patent US20220054644A1, “NOVEL DRUG DELIVERY CONJUGATED MOIETY FOR ORAL ADMINISTRATION OF DRUG UNSUITABLE FOR ORAL ADMINISTRATION AND PREPARATION METHOD THEREOF” (ST PHARM CO., LTD, priority 2015, published 2022).)
